Entries after “also recorded” stand apart in the source; their conditions may differ.
Experiments:
TNF-α [1] = experiment: TNF-α secretion by LPS-stimulated RAW264.7 cells (ELISA); type: cell-based, Mouse; settings: for inhibition rate on TNF-α / effect on TNF-α production (in words): LPS 200 ng/mL; for inhibition rate on TNF-α: mean ± SD, n = 3; for effect on TNF-α production (in words): synthetic peptides 25, 50, 100 μM
Method: (§1) RAW264.7 cells were cultured in DMEM medium containing 10% FBS and 1% double antibody at 37°C and 5% CO2 incubator. CCK-8 reagent was used for cell viability assay.
(§2) RAW264.7 cells (3 × 10^6 cells / mL) seeded into 12-well plates were pretreated with various concentrations of broccoli hydrolyzates or synthetic peptides for 2 h before stimulation by LPS (200 ng/mL). NO was determined using Griess reagent. TNF-α and IL-6 were measured by ELISA kits according to the manufacturer's instructions. More details of the assay are shown in Supplementary Table S2.

IL-6 [2] = experiment: IL-6 secretion by LPS-stimulated RAW264.7 cells (ELISA); type: cell-based, Mouse; settings: for effect on IL-6 production (in words): synthetic peptides 25, 50, 100 μM
Method: as §1, §2

NO = NO release from LPS-stimulated RAW264.7 cells (Griess reagent); type: cell-based, Mouse; settings: LPS 200 ng/mL; for inhibition rate of NO release: mean ± SD, n = 3
Method: as §1, §2

IL-6 [3] = system: IL-6; parameters: method as in doi:10.1016/j.jff.2020.104044; settings: sturgeon protein peptide; cited from earlier work
TNF-α [4] = system: TNF-α; parameters: method as in doi:10.1016/j.jff.2020.104044; settings: sturgeon protein peptide; cited from earlier work
[5] = peptide concentration exceeding 25 μM

Substance: KASFAFAGL [synthetic peptide identified from broccoli hydrolysate]
- inhibitory activity on TNF-α secretion (in words) (TNF-α [1]; [5]): did not show inhibitory activity
- inhibition rate on TNF-α (TNF-α [1]; synthetic peptide 25 μM (low dose)): 43.59 ± 0.27%
- inhibitory activity on IL-6 secretion (in words) (IL-6 [2]; [5]): did not show inhibitory activity
- inhibition rate on IL-6 (IL-6 [2]; synthetic peptide 25 μM (low dose), LPS 200 ng/mL, mean ± SD, n = 3): 29.84 ± 0.63%

Substance: SIWYGPDRP [synthetic peptide identified from broccoli hydrolysate]
- inhibition rate of NO release (NO; synthetic peptide 25 μM): 52.32 ± 1.48%

Substance: KIWHHFF
- inhibition of LPS-induced IL-6 secretion (in words) (IL-6 [3]): inhibited LPS-induced IL-6 secretion only at the lowest concentration
- TNF-α inhibitory activity (in words) (TNF-α [4]): did not exhibit TNF-α inhibitory activity

Substance: GDRW [synthetic peptide identified from broccoli hydrolysate]
- effect on TNF-α production (in words) (TNF-α [1]): significantly inhibited
- effect on IL-6 production (in words) (IL-6 [2]; LPS 200 ng/mL): significantly inhibited

Substance: FGDFNPGGRL [synthetic peptide identified from broccoli hydrolysate]
- inhibition rate on TNF-α (TNF-α [1]; synthetic peptide 100 μM): 68.44 ± 5.63%
- effect on TNF-α production (in words) (TNF-α [1]): dose-dependently decreased TNF-α
- effect on IL-6 production (in words) (IL-6 [2]; LPS 200 ng/mL): only inhibited IL-6 at a concentration of 50 μM

Substance: DGRYW [synthetic peptide identified from broccoli hydrolysate]
- inhibition rate of NO release (NO; synthetic peptide 100 μM): 53.94 ± 2.49%
- effect on NO secretion (in words) (NO; synthetic peptides 25, 50, 100 μM): reduced NO content in inflammatory cells in a dose-dependent manner

Substance: ADLAHLPF [synthetic peptide identified from broccoli hydrolysate]
- inhibition rate on TNF-α (TNF-α [1]; synthetic peptide 100 μM): 73.19 ± 5.31%
- effect on TNF-α production (in words) (TNF-α [1]): significantly inhibited; also recorded: dose-dependently decreased TNF-α
- effect on IL-6 production (in words) (IL-6 [2]; LPS 200 ng/mL): significantly inhibited

Substance: CKVWPPLH
- inhibition rate on TNF-α (TNF-α [1]; synthetic peptide 100 μM): 73.83 ± 0.81%
- effect on TNF-α production (in words) (TNF-α [1]): dose-dependently decreased TNF-α
